In PMC12297887, “Enhanced Anticancer Potential of Pd(II)-Thiosemicarbazone Complexes: Selectivity, Mechanisms, and 3D Models” (Pharmaceutics, 2025):

Columns and labels:
SK-BR-3 (breast cancer) = assay: Cell viability (MTT), SK-BR-3; format: cell-based, human; settings: for IC50: 48 h of incubation, MTT; for Selectivity index (SI) SK-BR-3: IC50 MRC5 / IC50 SK-BR-3
Method: (§1) The cell lines used in the tests were A2780 (ovarian cancer), A2780cis (ovarian cisplatin resistant cancer), A549 (lung cancer), MRC5 (non-tumoral lung […]), MDA-MB-231 (triple-negative breast cancer), MCF-7 (breast cancer), SK-BR-3 (breast cancer), MCF-10A (non-tumoral breast cancer), and A375 (skin cancer—melanoma).
(§2) The MCF-10A cell line was grown in DMEM/F-12 culture medium, supplemented with 5% horse serum, human epidermal growth factor (EGF) (20 ng/mL), hydrocortisone (0.05 mg/mL), insulin (0.01 mg/mL), penicillin (1%), streptomycin (1%), and L-glutamine (2 mM). The A2780, A2780cis, and MCF-7 cell lines were cultured in RPMI-1640 medium, and the other lines in DMEM medium; both culture media were supplemented with 10% (v/v) FBS (fetal bovine serum), antibiotics, and antimycotics. Cultivation was carried out in culture flasks stored in a humid incubator at 37 °C, with an atmosphere of 5% CO2.
(§3) The plates were kept for 24 h in a humidified incubator (37 °C, 5% CO2), after which 0.75 μL of a DMSO solution (0.5% v/v) containing the compounds of interest was added to each well. The plates were then incubated for a further 48 h. The ratio of viability of cells was obtained using the MTT method. Through its reduction via the mitochondrial process, purple formazan is formed, which is proportional to cell viability. After incubating the microplates, 50 μL of a solution of MTT (1 mg∙mL^−1) in PBS was added to each well and the cells were incubated again in the oven for 4 h. Finally, the solution was removed from each well and 100 μL of isopropyl alcohol with 10% DMSO was added to solubilize the Formazan crystals. Absorbance measurements (540 nm) were then taken in each well using a BioTek EPOCH spectrophotometer (BioTek, Winooski, WT, USA). The data obtained was analyzed using Excel 360 and GraphPadPrism 8.0.2.

[1] = system: MCF-10A (non-tumoral breast); assay: Cell viability (MTT), MCF-10A; format: cell-based, human; settings: 48 h of incubation, non-tumorigenic breast line, read-out: IC50 MFC-10A
Method: as §1, §2, §3

MRC5 (non-tumoral lung) = assay: Cell viability (MTT), MRC5; format: cell-based; settings: 48 h of incubation, non-tumor lung fibroblast
Method: as §1, §2, §3

[2] = system: A2780cis (ovarian cisplatin resistant cancer); assay: Cell viability (MTT), A2780cis; format: cell-based; settings: for IC50: 48 h of incubation, MTT; for resistance factor (RF): IC50(A2780cis)/IC50(A2780); for Selectivity index (SI) A2780cis: IC50 MRC5 / IC50 A2780cis
Method: as §1, §2, §3

A549 (lung cancer) = assay: Cell viability (MTT), A549; format: cell-based; settings: for IC50: 48 h of incubation, MTT; for Selectivity index (SI) A549: IC50 MRC5 / IC50 A549
Method: as §1, §2, §3

A2780 (ovarian cancer) = assay: Cell viability (MTT), A2780; format: cell-based; settings: for IC50: 48 h of incubation, MTT; for Selectivity index (SI) A2780: IC50 MRC5 / IC50 A2780
Method: as §1, §2, §3

MCF-7 (breast cancer) = assay: Cell viability (MTT), MCF-7; format: cell-based, human; settings: for IC50: 48 h of incubation, MTT; for Selectivity index (SI) MCF-7: IC50 MRC5 / IC50 MCF-7
Method: as §1, §2, §3

[3] = system: MDA-MB-231 (triple-negative breast cancer); assay: Cell viability (MTT), MDA-MB-231; format: cell-based, human; settings: for IC50: 48 h of incubation, MTT; for Selectivity index (SI) MDA-MB-231: IC50 MRC5 / IC50 MDA-MB-231
Method: as §1, §2, §3

[4] = system: A375 (skin cancer, melanoma); assay: Cell viability (MTT), A375; format: cell-based; settings: 48 h of incubation
Method: as §1, §2, §3

A2780cis cells [5] = assay: Apoptosis assay (PE-Annexin V/7AAD, flow cytometry); format: cell-based; settings: ½ × IC50, 24 h; control 86.4%
Method: Apoptosis in A2780cis cells induced by the complexes was analyzed by flow cytometry; a PE-Annexin-V Apoptosis Detection kit (BD Biosciences) was employed. The cells (1 × 10^5 cells/well) were seeded in a 24-well plate. After incubation for 24 h, the cells were exposed to increasing concentrations of complex PdB1 for 24 h. After treatment, the cells were collected, centrifuged at 2000 rpm and 4 °C for 5 min, washed with ice-cold PBS, and resuspended in 150 µL of binding buffer. PE-Annexin V (2.5 µL) and 7ADD (2.5 µL) were added, which was followed by incubation in the dark at room temperature for 20 min. Then, the cells were centrifuged at 2000 rpm and 4 °C for 5 min, resuspended in 400 µL of binding buffer, and analyzed on an Accuri C6 (BD Biosciences) flow cytometer; 10,000 events were recorded. Fluorescence was quantified in triplicate with the Cell Quest software (BD Biosciences). Untreated cells were the negative control.

A2780cis cells [6] = assay: Cell viability (LIVE/DEAD kit); format: cell-based; settings: beginning at ½ × IC50, 48 h
Method: 1.0 × 10^4 A2780cis cells were added to each well in a 96-well plate. After 24 h, the cells were treated with different concentrations of the compound and incubated again for 48 h. Then 100 µL of the LIVE/DEAD® solution prepared as described by the manufacturer was added. The images were acquired using a fluorescence microscope (CELENA® S logos biosystems) with a 4× objective, carried out in triplicate. Live and dead cells were counted using ImageJ 1.53 software and the IC50 value was calculated using GraphPad Prism 8.0.2.

A2780cis cells [7] = assay: Cell morphology assay (DAPI / Green Plasma fluorescence); format: cell-based; settings: starting at ½ × IC50, 48 h
Method: For morphological analysis by fluorescence with Green Plasma and DAPI, 1 × 10^4 cells/well of A2780cis were added to 96-well plates and incubated for 24 h. After this, the cells were treated with different concentrations of the compound and incubated for 48 h. Then the medium was removed and the cells were fixed with methanol for 5 min, and 50 μL of CellMasK Green Plasma membrane was added. After 5 min, 50 µL of DAPI was added and incubated at room temperature for a further 10 min. Images were taken using a fluorescence microscope (CELENA® S Logos Biosystems, Anyang-si, Republic of Korea) with the appropriate filters.

A2780cis spheroids = assay: Three-dimensional (spheroid) assay; format: cell-based; settings: for cell death within spheroids (DAPI/PI staining): 48 h; for spheroid morphology (brightfield): 48 h of treatment
Method: The 3D culture assay was performed with the A2780cis cell line using the Greiner Bio-One 96-well magnetic bioprinting kit. In total, 150 µL of magnetic nanoparticles were added to the cells grown in a 25 cm^2 bottle and incubated for 24 h. Then, 3750 cells/well were added to repellent 96-well plates, taken to the magnetic drive, and incubated for 4 days for the formation of […]. Once the spheroids had been obtained, they were treated with the compound PdB1 at different concentrations. Finally, images of the spheroids were recorded at 0 and 48 h, and images with fluorescence markers (DAPI and PI) were also obtained for the 48 h period using a logos biosystems CELENA® S fluorescence microscope.

A2780cis cells [8] = assay: Clonogenic assay; format: cell-based; settings: concentrations in relation to the IC50 of each complex, five days of treatment
Method: For this test, 600 cells of the A2780cis strain were added to each well of a six-well microplate. After incubating for 24 h in a 5% CO2 atmosphere, different concentrations of the compounds were added to the wells and incubated again for five days. After this period, the culture medium was changed and the plates were incubated for a further five days. Finally, the culture medium was removed and washed with PBS. Subsequently, a solution of methanol and acetic acid (3:1 v/v) was added for five minutes, and then the cells were stained with methyl violet solution. The plates were washed with distilled water. After drying, they were photographed using the iBright™ FL1500 (ThermoFisher, Waltham, MA, USA) and analyzed using ImageJ 1.53 software.

[9] = Stability in DMSO by 31P{1H} NMR; format: physicochemical; settings: d6-DMSO, after 48 h, no change in chemical shift
Method: The ^31P{^1H} NMR experiment was also carried out and the chemical shift values of the different complexes synthesized were similar to each other. There was a shift in the free PPh3 signal from −6.81 ppm to 30 ppm (Figure S12), indicating a reduction in the electronic density at the P of the triphenylphosphine due to coordination with Pd(II). Also, the PdB3 complex was tested for stability in DMSO.

Row | SMILES | IC50 (SK-BR-3 (breast cancer)) | Selectivity index (SI) SK-BR-3 (SK-BR-3 (breast cancer)) | IC50 [1] | IC50 (MRC5 (non-tumoral lung)) | IC50 [2] | resistance factor (RF) [2] | Selectivity index (SI) A2780cis [2] | IC50 (A549 (lung cancer)) | Selectivity index (SI) A549 (A549 (lung cancer)) | IC50 (A2780 (ovarian cancer)) | Selectivity index (SI) A2780 (A2780 (ovarian cancer)) | IC50 (MCF-7 (breast cancer)) | Selectivity index (SI) MCF-7 (MCF-7 (breast cancer)) | IC50 [3] | Selectivity index (SI) MDA-MB-231 [3] | IC50 [4] | further results
1 | N.N.[Cl][Pt][Cl] [Cisplatin, reference compound] | 5.86 ± 0.2 µM | 3.7 | 23.9 ± 0.7 µM | 21.6 ± 0.8 µM | 25.1 ± 0.9 µM | 1.76 | 0.9 | 13 ± 0.4 µM | 1.7 | 14.24 ± 0.05 µM | 1.5 | 8.64 ± 0.8 µM | 2.5 | 33.14 ± 0.3 µM | 0.7 | 12.2 ± 0.62 µM | 
2 | CC(/C=C/c1ccccc1)=[N+]1NC(N)=[S+][Pd-]1([Cl])[PH](c1ccccc1)(c1ccccc1)c1ccccc1.[Cl-] [PdB1, [PdCl(L-B1)(PPh3)]Cl] | 1.42 ± 0.07 µM | 1.2 | 1.58 ± 0.07 µM | 1.7 ± 0.2 µM | 0.2 ± 0.01 µM | 1.66 | 8.5 | 44.8 ± 2 µM |  | 0.12 ± 0.01 µM | 14.2 | 3.79 ± 0.4 µM | 0.4 | 1.45 ± 0.1 µM | 1.2 | 1.34 ± 0.08 µM | Q2-LL (viable cells, Q3 in the text) (A2780cis cells [5]): 37.1%; LIVE/DEAD viability (A2780cis cells [6]): marked increase in red-fluorescing (non-viable) cells; nuclear morphology (DAPI staining) (A2780cis cells [7]): chromatin condensation and nuclear fragmentation; cell death within spheroids (DAPI/PI staining) (A2780cis spheroids; 12.5 µM): significant level of cell death; cell death within spheroids (DAPI/PI staining) (A2780cis spheroids; 25 µM): complete disintegration; spheroid morphology (brightfield) (A2780cis spheroids; 25 µM): marked reduction in compaction and cohesion; spheroid morphology (brightfield) (A2780cis spheroids; lower concentrations): continued spheroid growth; colony formation (A2780cis cells [8]): significantly reduced colony formation
3 | CNC(NN=C(C)C=Cc1ccccc1)=[S][Pd]([Cl])[P](c1ccccc1)(c1ccccc1)c1ccccc1.[Cl-] [PdB2] | 1.48 ± 0.06 µM | 4.6 |  | 6.85 ± 0.3 µM | 0.21 ± 0.01 µM | 1.62 | 32.6 | 30.4 ± 0.4 µM | 0.2 | 0.13 ± 0.01 µM | 52.7 | 1.47 ± 0.2 µM | 4.7 | 0.92 ± 0.08 µM | 7.4 |  | 
4 | CCNC1=[S+][Pd-]([Cl])([PH](c2ccccc2)(c2ccccc2)c2ccccc2)[N+](=C(C)/C=C/c2ccccc2)N1.[Cl-] [PdB3, [PdCl(L-B3)(PPh3)]Cl] | < 2 µM |  |  | 9.28 ± 0.3 µM | 0.26 ± 0.01 µM | 1.13 | 35.7 | 13 ± 1 µM | 0.7 | 0.23 ± 0.01 µM | 40.3 | 0.91 ± 0.008 µM | 10.2 | 1.04 ± 0.06 µM | 8.9 |  | stability in DMSO [9]: remained stable
5 | NC1=[S+][Pd-]([Cl])([PH](c2ccccc2)(c2ccccc2)c2ccccc2)[N+](=C(/C=C/c2ccccc2)c2ccccc2)N1.[Cl-] [PdC1, [PdCl(L-C1)(PPh3)]Cl] | 2.25 ± 0.3 µM | 20.8 | 2.64 ± 0.06 µM | 46.8 ± 2 µM | 0.62 ± 0.01 µM | 1.55 | 75.4 | > 50 µM |  | 0.4 ± 0.01 µM | 116.9 | 17.7 ± 1 µM | 2.6 | 5.97 ± 0.1 µM | 7.8 | > 50 µM | colony formation (A2780cis cells [8]): reduced colony formation
6 | CNC1=[S+][Pd-]([Cl])([PH](c2ccccc2)(c2ccccc2)c2ccccc2)[N+](=C(/C=C/c2ccccc2)c2ccccc2)N1.[Cl-] [PdC2, [PdCl(L-C2)(PPh3)]Cl] | > 50 µM |  |  | > 50 µM | 1.66 ± 0.01 µM | 0.42 |  | > 50 µM |  | 3.93 ± 0.2 µM |  | > 50 µM |  | 9.66 ± 0.4 µM |  |  | 
7 | CCNC1=[S+][Pd-]([Cl])([PH](c2ccccc2)(c2ccccc2)c2ccccc2)[N+](=C(/C=C/c2ccccc2)c2ccccc2)N1.[Cl-] [PdC3, [PdCl(L-C3)(PPh3)]Cl] | > 50 µM |  |  | > 50 µM | 11.1 ± 0.6 µM | 0.48 |  | > 50 µM |  | 22.8 ± 1 µM |  | > 50 µM |  | > 50 µM |  |  | 
8 | CC#N.CC#N.[Cl][Pd][Cl] [[PdCl2(MeCN)2], reference compound] |  |  |  | > 50 µM | > 50 µM |  |  | > 50 µM |  |  |  |  |  | > 50 µM |  |  | 
